The NIST ThermoML archive (doi:10.1016/j.jct.2016.12.037)

Experiment: xn = mol fraction of the nth substance listed
Conditions: Liquid; for viscosity: Concentric cylinders viscometry

CCCC[n+]1ccn(C)c1.O=S(=O)([N-]S(=O)(=O)C(F)(F)F)C(F)(F)F + CCCCn1cc[n+](C)c1.[Cl-]
viscosity [mPa·s], 100 kPa
Conditions | 293.15 K | 303.15 K | 313.15 K | 323.15 K
x2 = 0 | 63.41 | 41.26 | 28.46 | 20.58
x2 = 0.25 | 150.8 | 89.81 | 57.25 | 38.43
x2 = 0.5 | 489.6 | 255.5 | 144.8 | 87.69
x2 = 0.75 | – | 1095 | 513 | 265.5

mass density [kg/m3]
Conditions | x2 = 0 | x2 = 0.25 | x2 = 0.5 | x2 = 0.75
293.15 K, 100 kPa, Vibrating tube method | 1440.9 | 1383.3 | 1310.1 | –
303.15 K, 100 kPa, Vibrating tube method | 1431.6 | 1374.4 | 1301.8 | 1207.9
312.3 K, 10000 kPa, Bellows volumetry | – | 1373.1 | 1300.2 | 1205.8
312.3 K, 20000 kPa, Bellows volumetry | – | 1379.8 | 1306.1 | 1210.5
312.3 K, 30000 kPa, Bellows volumetry | – | 1386 | 1311.7 | 1215
312.3 K, 40000 kPa, Bellows volumetry | – | 1392 | 1317 | 1219.3
312.3 K, 50000 kPa, Bellows volumetry | – | 1397.7 | 1322.1 | 1223.6
312.3 K, 60000 kPa, Bellows volumetry | – | 1403.3 | 1326.9 | 1227.7
312.3 K, 70000 kPa, Bellows volumetry | – | 1408.6 | 1331.6 | 1231.6
312.3 K, 80000 kPa, Bellows volumetry | – | 1413.7 | 1336.2 | 1235.5
312.3 K, 90000 kPa, Bellows volumetry | – | 1418.5 | 1340.5 | 1239.2
312.3 K, 100000 kPa, Bellows volumetry | – | 1423.4 | 1344.8 | 1242.8
312.3 K, 110000 kPa, Bellows volumetry | – | 1428.1 | 1349.1 | 1246.4
312.3 K, 120000 kPa, Bellows volumetry | – | 1432.6 | 1353.1 | 1249.9
312.3 K, 130000 kPa, Bellows volumetry | – | 1437.1 | 1357.1 | 1253.3
312.3 K, 140000 kPa, Bellows volumetry | – | 1441.3 | 1360.9 | 1256.6
312.3 K, 150000 kPa, Bellows volumetry | – | 1445.6 | 1364.7 | 1260
312.3 K, 160000 kPa, Bellows volumetry | – | 1449.7 | 1368.4 | 1263.1
312.3 K, 170000 kPa, Bellows volumetry | – | 1453.8 | 1372.2 | 1266.3
312.3 K, 180000 kPa, Bellows volumetry | – | 1457.7 | 1375.8 | 1269.4
312.3 K, 190000 kPa, Bellows volumetry | – | 1461.7 | 1379.3 | 1272.4
312.3 K, 200000 kPa, Bellows volumetry | – | 1465.4 | 1382.7 | 1275.5
313.15 K, 100 kPa, Vibrating tube method | 1422.1 | 1365.6 | 1293.9 | 1200.6
323.15 K, 100 kPa, Vibrating tube method | 1412.6 | 1356.8 | 1286 | 1193.6
331.8 K, 10000 kPa, Bellows volumetry | – | 1356.2 | 1285.2 | –
